Test results taken from patent US10895019B2, “Encoded self-assembling chemical libraries (ESACHEL)” (Eidgenoessische Technische Hochschule Zurich, priority 2002, dated 2021).

Legend:
[1] = molecular target: streptavidin (Streptomyces avidinii, UniProt P22629); settings: Green (1966); cited from earlier work
[2] = molecular target: human carbonic anhydrase; assay: carbonic anhydrase activity assay with substrate 4-Nitrophenylacetate (Pocker and Stone); format: biochemical; settings: absorption at 400 nm, read-out: IC50 towards human carbonic anhydrase
Description: We measured the inhibitory concentration 50 [IC50] of 4-sulfonamido benzoic acid propylamide using an activity assay described by Pocker and Stone [(1967), Biochemistry 6, 668-678]. In short, we incubated carbonic anhydrase in separate wells of a transparent 96 well microtiter plate with different concentrations of the inhibitor and the substrate 4-Nitrophenylacetate. The proceeding of the reaction was monitored at the increase of absorption at 400 nm due to formation of the product 4-nitrophenol.

streptavidin, sequence (P22629 25-183): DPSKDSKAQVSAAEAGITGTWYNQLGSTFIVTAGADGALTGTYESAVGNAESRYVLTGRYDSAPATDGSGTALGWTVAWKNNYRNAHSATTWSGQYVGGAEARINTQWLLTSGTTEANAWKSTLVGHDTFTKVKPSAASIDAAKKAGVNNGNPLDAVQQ

Structure (SMILES) | affinity to streptavidin relative to biotin [1] | IC50 [2]
N=C1N[C@H]2[C@H](CS[C@H]2CCCCC(=O)O)N1 [Iminobiotin] | substantially reduced affinity | –
CCCNC(=O)c1ccc(S(N)(=O)=O)cc1 [4-sulfonamido benzoic acid propylamide] | – | 6 µM
